One may read the IC50 as the concentration that gives 50% inhibition.

The test system of series [1] is Lewis Lung Carcinoma (LLC). Nature of the series: In vivo anticancer activity toward Lewis Lung Carcinoma (LLC). The following applies: LLC in C57BL mice, 27 at 7.5 mg/kg, CDDP at 1.5 mg/kg. The text has this: (§1) Besides, it was as cytotoxic as 19 towards cancer cells while showing a more favorable selectivity index. On these basis, compound 27 was chosen for in vivo experiments against a syngeneic murine solid tumor model, the murine Lewis Lung Carcinoma (LLC). The tumor growth inhibition induced by 27 was compared with that promoted by cisplatin (CDDP), the most common chemotherapeutic drug used in the treatment of lung cancers. Nine days after tumor inoculation, tumor-bearing mice were randomized into vehicle control and treatment groups (8 mice per group). Control mice received the vehicle (0.2%v/v EtOH and 99.8%v/v of a saline solution), whereas treated groups received daily doses of 27 (7.5 mg · kg^−1 in the vehicle solution composed of 0.2%v/v EtOH and 99.8%v/v of saline solution) or CDDP (1.5 mg · kg^−1 in saline solution). Tumor growth was estimated at day 20 (Fig. 7a). As an indication of the adverse side effects, changes in the body weights of tumor-bearing mice were monitored at day 1 and daily from day 9.
Figure 7 In vivo testing of compound 27. Lewis lung carcinoma (LLC) was implanted i.m. (2 · 10^6 cells inoculum) into the right hind leg of 8-week old imbred C57BL mice. Nine days after tumor inoculation (palpable tumor), tumor-bearing mice were randomized into vehicle control and treatment groups (8 mice per group). Compound 27 was dosed daily at 7.5 mg/kg ip and CDDP was dosed daily at 1.5 mg/kg ip. At day 20, animals were sacrificed (i.e., before tumor can cause the animal discomfort), the legs were amputated at the proximal end of the femur, and the inhibition of tumor growth was determined according to the difference in weight of the tumor-bearing leg and the healthy leg of the animals expressed as % referred to the control animals. Control was constituted by vehicle (0.2%v/v EtOH and 99.8%v/v of saline solution). CDDP was used as positive reference. Both 27 and CDDP were administered at the highest not toxic doses (7.5 and 1.5 mg/kg, respectively), as determined by MTD studies. (a) Average tumor weight (g) after 20 days of treatment with control or compounds. (b) Percentage of reduction in tumor growth after 20 days of treatment with respect to control mice. (c) Body weight changes. The body weight changes of LLC bearing C57BL mice treated with vehicle or tested compounds. Each drug was administered daily after 9 days from the tumor cell inoculum. Weights were measured at day 1 and daily from day 9. Error bars indicate the standard deviation.
All studies involving animal testing were carried out in accordance with the ethical guidelines for animal research adopted by the University of Padua, acknowledging the Italian regulation (D.L.G.S. 116/92) and European Directive 86/609/EEC as to the animal welfare and protection and the related codes of practice. […]

Series [2] in a line: Body weight changes of LLC bearing mice. Format: in vivo. The following applies: mouse, in vivo, ip, 1.5 mg/kg.
Excerpt: as §1, with “Control mice received the vehicle (0.2%v/v EtOH and 99.8%v/v of a saline solution), whereas treated groups received daily doses of 27 (7.5 mg · kg^−1 in the vehicle solution composed of 0.2%v/v EtOH and 99.8%v/v of saline solution) or CDDP (1.5 mg · kg^−1 in saline solution). Tumor growth was estimated at day 20 (Fig. 7a).” left out
Figure 7 In vivo testing of compound 27. […] At day 20, animals were sacrificed (i.e., before tumor can cause the animal discomfort), the legs were amputated at the proximal end of the femur, and the inhibition of tumor growth was determined according to the difference in weight of the tumor-bearing leg and the healthy leg of the animals expressed as % referred to the control animals. […] Both 27 and CDDP were administered at the highest not toxic doses (7.5 and 1.5 mg/kg, respectively), as determined by MTD studies. […] Weights were measured at day 1 and daily from day 9. […]

A short description of series [3]: MTD studies (highest not toxic dose). The settings on record: daily ip. Format: in vivo.
The test system of another series is A549 cells. Nature of the series: MTT cytotoxicity assay, A549 lung cancer cells. Format: cell-based, human. The method, then:
(§2) Compounds active against at least one kinase among EGFR and class III RTKs were evaluated for their cytotoxic properties against two different human cancer cell lines, namely non small cells A549 lung cancer cells (sensitive to EGFR inhibitors)[46] and pancreatic BxPC3 adenocarcinoma (sensitive to both PDGFRβ and EGFR inhibitors)[47][48] cells. […] The results, expressed as IC50 values (μM) calculated from the dose-survival curves obtained after 72 h of drug treatment from the MTT test, are reported in Table 1.
(§3) All compounds, except derivative 27, were dissolved in DMSO just before the experiment, and a calculated amount of drug solution was added to the cell growth medium to a final solvent concentration of 0.5%, which had no discernible effect on cell killing. Compound 27 was dissolved in a 0.9% NaCl solution just before the experiment.
(§4) Human lung (A549), breast (MCF-7), pancreas (BxPC3), and colon (LoVo) carcinoma cell lines along with melanoma (A375) were obtained from American Type Culture Collection (ATCC, Rockville, MD). Human non-tumor embryonic kidney HEK293 cells were obtained from European Collection of Cell Cultures (ECACC, Salisbury, UK). Human cervical carcinoma A431cells were kindly provided by Prof. F. Zunino (Division of Experimental Oncology B, Istituto Nazionale dei Tumori, Milan, Italy). Human ovarian cancer 2008 cells were kindly provided by Prof. G. Marverti (Dept. of Biomedical Science of Modena University, Italy). Cell lines were maintained in the logarithmic phase at 37 °C in a 5% carbon dioxide atmosphere using the following culture media containing 10% fetal calf serum (Euroclone, Milan, Italy), antibiotics (50 units ∙ mL^−1 penicillin and 50 μg ∙ mL^−1 streptomycin) and 2 mM l-glutamine: i) RPMI-1640 medium (Euroclone) for MCF-7, A431, BxPC3 and 2008 cells; ii) F-12 HAM’S (Sigma Chemical Co.) for A549 and LoVo cells; iii) D-MEM medium (Euroclone) for HEK293 cells.
(§5) The growth inhibitory effect towards human cell lines was evaluated by means of MTT (tetrazolium salt reduction) assay. Briefly, 3–8 ∙ 10^3 cells/well, dependent upon the growth characteristics of the cell line, were seeded in 96-well microplates in growth medium (100 μL) and then incubated at 37 °C in a 5% carbon dioxide atmosphere. After 24 h, the medium was removed and replaced with a fresh one containing the test compound at the appropriate concentration. Triplicate cultures were established for each treatment. After 72 h, each well was treated with 10 μL of a 5 mg ∙ mL-1 MTT (3-(4,5-dimethylthiazol-2-yl)-2,5-diphenyltetrazolium bromide) saline solution, and after 5 h additional incubation, 100 μL of a sodium dodecylsulfate (SDS) solution in HCl 0.01 M were added. After overnight incubation, the inhibition of cell growth induced by the tested complexes was detected by measuring the absorbance of each well at 570 nm using a Bio-Rad 680 microplate reader (Bio-Rad, Hercules, CA). Mean absorbance for each drug dose was expressed as a percentage of the control untreated well absorbance and plotted vs drug concentration.
(In general: Tetrazolium dyes change colour on reduction, which living cells bring about.)

For another series, the system named is BxPC3 cells. As to the kind of experiment: MTT cytotoxicity assay, BxPC3 pancreatic adenocarcinoma cells. Type of series: cell-based, human. The method, then: as §2, §3, §4, §5
The subject of another series is HEK293 cells. Nature of the series: MTT cytotoxicity assay, non-tumor HEK293 cells. Format: cell-based, human. The method, then:
F. Zunino (Division of Experimental Oncology B, Istituto Nazionale dei Tumori, Milan, Italy).
The growth inhibitory effect towards human cell lines was evaluated by means of MTT (tetrazolium salt reduction) assay. […] Triplicate cultures were established for each treatment.

Another series concerns panel of 48 kinases. Nature of the series: KinomeScan primary screening (POC) at 10 μM. Format: binding, human. The following applies: POC values. The text has this:
Synthesized compounds were screened against a panel of 48 kinases selected within the ScanEDGE subset of DiscoverX (http://www.discoverx.com/services/drug-discovery-development-services/kinase-profiling/kinomescan/scanedge). The ScanEDGE includes 97 kinases and is an economical approach to assess compounds selectivity throughout the human kinome. All the wt-TKs along with some relevant mutants of Abl1 (T315I) and of EGFR (L858R and L858R/T790M) were chosen. The remaining 18 targets (3 Tyrosine Kinases-Like, TKLs; 15 Serine-Threonine Kinases, STKs) were selected among the remaining kinases in the ScanEDGE subset on the basis of their well established role in cancer (see Fig. S2 for a graphical representation of the selected kinases with reference to the kinome tree. Some references highlighting the role of each kinase in cancer are also reported in Table S3).
The compounds were evaluated using the KinomeScan™ platform (http://www.discoverx.com/services/drug-discovery-development-services/kinase-profiling/kinomescan), that measures the ability of the test compound to disrupt the complex between a high affinity ATP-mimic probe immobilized on a solid support and the kinase of interest. The KinomeScan is a very helpful technology for the fast and reliable screening of a number of compounds against a wide and customizable panel of kinases. Besides, it is not based on the use of hazardous radioactive ^32P-ATP and has a very low rate of false positive (<1%)[44]. The screening platform outputs a “Percent of Control” (POC) value, statistically correlated to the dissociation constant (Kd) value (http://www.discoverx.com/tools-resources/leadhunter-study-reports-data-analysis), for each pair of kinase/ligand. The POC is calculated as reported in equation (1):
Where: test compound signal = amount of kinase still binding the probe after treatment with test compound; negative control signal = amount of kinase still binding the probe after treatment with DMSO (100% control); positive control signal = amount of kinase still binding the probe after treatment with control compound (0% control).
(§6) The compounds were tested at high concentration (10 μM), in order to highlight not only the main target but also the off-targets. The results of the preliminary screening are reported as heat map (Fig. 4; see also Table S4 for all the measured values), in which the compounds are grouped on the basis of the 6 or 5 substituent at the pyrimidine ring.

The target of another series is T1, EGFR (Homo sapiens, UniProt P00533).
T1 construct: purchased DiscoverX (KinomeScan, ScanEDGE subset)
T1 sequence (P00533 25-1210): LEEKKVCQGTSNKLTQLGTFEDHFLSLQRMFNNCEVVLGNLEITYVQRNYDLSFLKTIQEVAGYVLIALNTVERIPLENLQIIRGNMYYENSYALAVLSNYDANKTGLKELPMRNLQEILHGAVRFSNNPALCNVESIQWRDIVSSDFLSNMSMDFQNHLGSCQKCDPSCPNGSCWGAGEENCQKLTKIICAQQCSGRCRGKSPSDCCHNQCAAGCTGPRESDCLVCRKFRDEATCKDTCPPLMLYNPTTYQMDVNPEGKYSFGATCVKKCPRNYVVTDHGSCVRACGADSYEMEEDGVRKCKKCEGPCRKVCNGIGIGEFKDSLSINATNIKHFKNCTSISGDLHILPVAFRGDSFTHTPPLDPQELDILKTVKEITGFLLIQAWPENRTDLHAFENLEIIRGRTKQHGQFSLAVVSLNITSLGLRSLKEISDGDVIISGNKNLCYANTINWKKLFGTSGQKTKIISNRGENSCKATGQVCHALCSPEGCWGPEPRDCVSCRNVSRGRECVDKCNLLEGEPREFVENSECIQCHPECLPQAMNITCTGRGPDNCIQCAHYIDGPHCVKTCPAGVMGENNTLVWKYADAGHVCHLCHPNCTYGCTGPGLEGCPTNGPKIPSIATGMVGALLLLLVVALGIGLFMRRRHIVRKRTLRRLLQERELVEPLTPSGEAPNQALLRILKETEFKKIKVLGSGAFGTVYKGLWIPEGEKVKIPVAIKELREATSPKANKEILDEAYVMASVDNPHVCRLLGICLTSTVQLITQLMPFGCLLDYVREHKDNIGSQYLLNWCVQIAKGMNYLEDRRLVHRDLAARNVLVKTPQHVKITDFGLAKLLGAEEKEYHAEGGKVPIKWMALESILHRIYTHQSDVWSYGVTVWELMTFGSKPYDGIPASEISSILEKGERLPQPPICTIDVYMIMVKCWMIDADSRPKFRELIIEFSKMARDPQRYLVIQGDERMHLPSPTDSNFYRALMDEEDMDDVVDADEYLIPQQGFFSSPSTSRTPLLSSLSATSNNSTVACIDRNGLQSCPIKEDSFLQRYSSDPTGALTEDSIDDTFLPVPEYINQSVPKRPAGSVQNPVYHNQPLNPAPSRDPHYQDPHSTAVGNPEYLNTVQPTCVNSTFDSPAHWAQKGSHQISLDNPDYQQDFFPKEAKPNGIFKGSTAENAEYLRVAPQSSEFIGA
As to the kind of experiment: KinomeScan primary screening (POC) at 10 μM, EGFR. The following applies: POC values. Format: binding. The method, then:
Synthesized compounds were screened against a panel of 48 kinases selected within the ScanEDGE subset of DiscoverX (http://www.discoverx.com/services/drug-discovery-development-services/kinase-profiling/kinomescan/scanedge). The ScanEDGE includes 97 kinases and is an economical approach to assess compounds selectivity throughout the human kinome. All the wt-TKs along with some relevant mutants of Abl1 (T315I) and of EGFR (L858R and L858R/T790M) were chosen. […]
The compounds were evaluated using the KinomeScan™ platform (http://www.discoverx.com/services/drug-discovery-development-services/kinase-profiling/kinomescan), that measures the ability of the test compound to disrupt the complex between a high affinity ATP-mimic probe immobilized on a solid support and the kinase of interest. […] The POC is calculated as reported in equation (1): […]
as §6

Molecules are shown by their SMILES. “And” between values parts separate entries of the source, which are not always exact repeats. Identical values can stand only once.

With `[NH2][Pt]([NH2])([Cl])[Cl]` [CDDP, cisplatin, reference compound], the “Inhibition of tumor growth (%)” value in series [1] (daily ip from day 9, day 20, versus vehicle control) is 71.63% and 71.6%. Also, the “Average tumor weight (mean±S.D., g)” value in series [1] (daily ip from day 9, day 20) amounted to 0.139 ± 0.09 g. In series [2], the “Body weight loss (in words)” value is reported as “elevated body weight loss”. In addition, the “Highest not toxic dose as determined by MTD studies” value in series [3] worked out at 1.5 mg/kg.

With `O=C(Nc1ccccc1)Nc1ccc(Nc2cc(Nc3ccccc3)ncn2)cc1` [Compound 7], the IC50 with A549 cells (Homo sapiens, A549, 72 h, MTT test, 72 h of drug treatment, read-out: A549 IC50 (μM) ± SD) is 5.13 ± 0.94 µM; in the series with BxPC3 cells (Homo sapiens, BXPC-3, MTT test, 72 h of drug treatment, read-out: BxPC3 IC50 (μM) ± SD), 4.6 ± 0.85 µM; in the series on HEK293 cells (Homo sapiens, HEK293, MTT test, 72 h, non-tumor cells, read-out: HEK293 IC50 (μM) ± SD), 3.14 ± 0.57 µM. The “Potency relative to SU (A549)” value in the series on A549 cells (ratio between IC50 of sunitinib and IC50 of tested compound, A549) came out at 1.21. Moreover, the “Potency relative to SU (BxPC3)” value with BxPC3 cells (ratio between IC50 of sunitinib and IC50 of tested compound, BxPC3) stood at 1.10. Further, the “Selectivity Index” value with HEK293 cells (IC50 toward non cancerous HEK293 cells divided by the average IC50 for the malignant cells (A549, BxPC3)) is recorded as 0.64. Also, the “Selectivity profile (kinases targeted) in primary screening” value in the series with panel of 48 kinases is listed as “class III RTK”. At EGFR, the “Activity against EGFR in primary screening” value is recorded as “very poor activity”.

The record behind these values is paper PMC4645160, “Targeting kinases with anilinopyrimidines: discovery of N-phenyl-N’-[4-(pyrimidin-4-ylamino)phenyl]urea derivatives as selective inhibitors of class III receptor tyrosine kinase subfamily” (Scientific Reports, 2015).
